From the NIST ThermoML archive (doi:10.1021/je501026m)
Numbers after ± are expanded uncertainties.

Conditions: Crystal; DTA

- Normal melting temperature: 98.00 ± 1 °C
SMILES: C[n+]1ccn(CCOCCn2cc[n+](C)c2)c1.F[P-](F)(F)(F)(F)F.F[P-](F)(F)(F)(F)F
